The source of these data is patent US8183263B2 (priority 2007, dated 2012).

Bounds are passed on as bounds.

The subject of the assay is HCV replicon. Description: HCV replicon replication assay (NPT level by captured ELISA). Format: cell-based. Conditions: Hepatitis C virus, 72 h; Huh-7 HCV replicon-containing cells, three days incubation; read-out: Activity (inhibition of HCV replicon replication). An outline of the steps:
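Huh-7 cells carrying HCV subgenomic replicon (NS3–NS5B, neo reporter) treated 3 days at 37 °C with 6 concentrations from 10 to 0.03 micromolar in G418-free medium, equal DMSO across wells. Replication measured on day four as NPTII level by in-cell captured ELISA on fixed cells; interferon alpha as positive control.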
For orientation: In antiviral work, replicon cells carry a viral genome segment that copies itself.
`CCCCCCc1ccc(Nc2nc(-c3cnc(OC)nc3)cs2)cc1C(F)(F)F` [Cmp 113, N-(4-hexyl-3-(trifluoromethyl)phenyl)-4-(2-methoxypyrimidin-5-yl)thiazol-2-amine]: the EC50 is < 1000 nM.
Consider `CCCCCCCCc1cc2ccc(Nc3nc(-c4cccnc4)cs3)cc2o1` [Cmp 114, N-(2-octylbenzofuran-6-yl)-4-(pyridin-3-yl)thiazol-2-amine], for which the EC50 was < 1000 nM.
In the case of `CCCCCCCCc1cc2ccc(Nc3nc(-c4ccc(C)nc4)cs3)cc2o1` [Cmp 115, 4-(6-methylpyridin-3-yl)-N-(2-octylbenzofuran-6-yl)thiazol-2-amine] it was < 1000 nM; in that of `Cc1ccc(OCCCCc2ccc(Nc3nc(-c4cccnc4)c(F)s3)cc2C(F)(F)F)cc1` [Cmp 116, 5-fluoro-4-(pyridin-3-yl)-N-(4-(4-(p-tolyloxy)butyl)-3-(trifluoromethyl)phenyl)thiazol-2-amine], < 1000 nM.
Then `Cc1ccc(OCCCCc2ccc(Nc3nc(-c4cccnc4)cs3)cc2C(F)(F)F)cc1` [Cmp 117, 4-(pyridin-3-yl)-N-(4-(4-(p-tolyloxy)butyl)-3-(trifluoromethyl)phenyl)thiazol-2-amine], with < 1000 nM.
Take `Cc1ccc(OCCCc2ccc(Nc3nc(-c4cccnc4)cs3)cc2C(F)(F)F)cc1` [Cmp 118, 4-(pyridin-3-yl)-N-(4-(3-(p-tolyloxy)propyl)-3-(trifluoromethyl)phenyl)thiazol-2-amine]: the EC50 was < 1000 nM.
In the case of `CCCCCCCCOc1c(F)cc(Nc2nc(-c3cccnc3)c(F)s2)cc1F` [Cmp 119, N-(3,5-difluoro-4-(octyloxy)phenyl)-5-fluoro-4-(pyridin-3-yl)thiazol-2-amine] it was < 1000 nM; in that of `CCCCCCCCOc1ccc(N(N)c2nc(-c3cccnc3)c(F)s2)cc1C(F)(F)F` [Cmp 120, 5-fluoro-2-(1-(4-(octyloxy)-3-(trifluoromethyl)phenyl)hydrazinyl)-4-(pyridin-3-yl)thiazole], < 1000 nM.
As for `CCCCCCCCOc1ccc(Nc2nc(-c3cnc(OC)nc3)c(CN(C)C)s2)cc1C(F)(F)F` [Cmp 121, 5-((dimethylamino)methyl)-4-(2-methoxypyrimidin-5-yl)-N-(4-(octyloxy)-3-(trifluoromethyl)phenyl)thiazol-2-amine], the EC50 lay within 1000 to 10000 nM.
Turning to `CCCCCCCCC1Cc2ccc(Nc3nc(-c4cccnc4)cs3)cc2O1` (stereo not shown) [Cmp 123, N-(2-octyl-2,3-dihydrobenzofuran-6-yl)-4-(pyridin-3-yl)thiazol-2-amine], the EC50 was < 1000 nM.
In the case of `CCCCCCCCC1Cc2ccc(Nc3nc(-c4ccc(C)nc4)cs3)cc2O1` (stereo not shown) [Cmp 124, 4-(6-methylpyridin-3-yl)-N-(2-octyl-2,3-dihydrobenzofuran-6-yl)thiazol-2-amine] it was < 1000 nM.
Then `Cc1ccc(CCCCOc2cc(Nc3nc(-c4cccnc4)cs3)ccc2C(F)(F)F)cc1` [Cmp 125, 4-(pyridin-3-yl)-N-(3-(4-p-tolylbutoxy)-4-(trifluoromethyl)phenyl)thiazol-2-amine], with < 1000 nM.
Then `Cc1ccc(CCCCOc2cc(Nc3nc(-c4cccnc4)c(F)s3)ccc2C(F)(F)F)cc1` [Cmp 126], with < 1000 nM; and `Cc1ccc(OCCCc2ccc(Nc3nc(-c4cccnc4)c(F)s3)cc2C(F)(F)F)cc1` [Cmp 127, 5-fluoro-4-(pyridin-3-yl)-N-(4-(3-(p-tolyloxy)propyl)-3-(trifluoromethyl)phenyl)thiazol-2-amine], with < 1000 nM; and `CCCCCCCCc1cc2cc(Nc3nc(-c4cccnc4)c(F)s3)ccc2o1` [Cmp 128, 5-fluoro-N-(2-octylbenzofuran-5-yl)-4-(pyridin-3-yl)thiazol-2-amine], with < 1000 nM.
In the case of `CCCCCCCCC1Cc2ccc(Nc3nc(-c4cccnc4)c(F)s3)cc2O1` (stereo not shown) [Cmp 129, 5-fluoro-N-(2-octyl-2,3-dihydrobenzofuran-6-yl)-4-(pyridin-3-yl)thiazol-2-amine], the EC50 was < 1000 nM.
